Key:
ABCB1 transporter [1] = target: T1, ABCB1 transporter (Homo sapiens, UniProt P08183); experiment: HOE (Hoechst 33342) accumulation in MDCKII-ABCB1 cells; assay type: cell-based; settings: 8 µM HOE, end-point fluorescence at 30 min, 50% of each compound's own maximum inhibitory activity, read-out: IC50, inhibition of ABCB1-mediated efflux of HOE
T1 construct: expressed in transfected cells; host or cells: MDCKII (canine kidney) cells transduced with human ABCB1, from Prof; Piet Borst and Dr. Alfred Schinkel (The Netherlands Cancer Institute)
Description: (§1) To investigate the inhibitory activity of CDKi on ABCB1, the intracellular accumulation of HOE, a fluorescent ABCB1 substrate, was examined in both MDCKII-ABCB1 and MDCKII parent cell lines in the presence and absence of the tested compounds. The reduction in fluorescence intensity in ABCB1-transduced cells indicates the efflux activity of the ABCB1 transporter, its inhibition increases HOE accumulation and thus the intracellular fluorescence.
(§2) The assay was conducted as previously described and optimized for application in ABCB1-expressing cells. Briefly, MDCKII-ABCB1 and MDCKII parent cells were seeded at 5×10^4 cells per well on a 96-well culture plate and used for accumulation experiments after 24 h cultivation. The medium was removed and cells were washed twice with prewarmed phosphate buffered saline (PBS) at pH 7.4.

ABCB1 [2] = target: T2, ABCB1 (Homo sapiens, UniProt P08183); experiment: ABCB1-ATPase inhibition assay (verapamil-stimulated), Sf9 membranes; assay type: biochemical; set-up: purchased Solvo Biotechnology (Szeged, Hungary); host or cells: Sf9 insect cell membranes; settings: 140 nM to 300 µM
Description: (§3) The drug efflux function of ABCB1 is linked to hydrolysis of ATP by ATPase, which is stimulated in the presence of ABCB1 substrates. In the activation assay, transported substrates can stimulate baseline vanadate-sensitive ATPase activity, whereas in the inhibition assay, which is carried out in the presence of a known activator of the transporter, inhibitors may reduce the maximal vanadate-sensitive ATPase activity. ATPase activity was measured by assessing the amount of phosphate liberated from ATP by the ABCB1 transporter using the […] ATPase kit for ABCB1 according to the manufacturer’s instructions. For this purpose, Sf9 cell membranes (4 µg protein per well) were mixed with each of the test compounds (singly) in solutions with concentrations ranging from 140 nM to 300 µM, then incubated at 37°C for 10 min in the presence or absence of 1.2 mM sodium orthovanadate. The reaction was started by adding 10 mM ATP solution (magnesium salt) to the reaction mixture, stopped 10 min later, and the absorbance at 590 nm was measured after a further 30 min incubation (GeniosPlus apparatus; Tecan, Männedorf, Switzerland). The ATPase activity in each sample was determined as the difference in liberated amounts of phosphate measured in the presence and absence of 1.2 mM sodium orthovanadate. Phosphate standards were prepared in each plate and verapamil served as a positive control for ABCB1 stimulation. The results are expressed as vanadate-sensitive ATPase activities.

mouse P-glycoprotein = tested on: mouse P-glycoprotein; set-up: method as in PMID 15338193; settings: cited from earlier work
ABCB1 [3] = target: T2, ABCB1; experiment: ABCB1-ATPase activation assay (baseline), Sf9 membranes; assay type: biochemical; set-up: purchased Solvo Biotechnology (Szeged, Hungary); host or cells: Sf9 insect cell membranes; settings: from ATPase activity in Sf9 membranes overexpressing human ABCB1
Description: as §3

ABCB1 [4] = target: T2, ABCB1; experiment: HOE (Hoechst 33342) accumulation in MDCKII-ABCB1 cells; assay type: cell-based; set-up: expressed in transfected cells; host or cells: MDCKII (canine kidney) cells transduced with human ABCB1, from Prof; Piet Borst and Dr. Alfred Schinkel (The Netherlands Cancer Institute); settings: human, probe Hoechst 33342 (HOE), 8 µM, CDKi applied at their respective IC50 concentrations, % as strongly as LY, read-out: Inhibition of HOE efflux relative to LY
Description: as §1, §2

ABCB1 transporter [5] = target: T1, ABCB1 transporter; experiment: DNR accumulation in MDCKII-ABCB1 cells (flow cytometry), normalized to parental MDCKII; assay type: cell-based; settings: 1 - 20 µM CDKi, 2 µM DNR
Description: Briefly, MDCKII-ABCB1 and MDCKII parent cells were seeded at 1.5×10^5 cells per well on a 12-well plate 24 h before the experiment. The medium was removed and the cells were washed with prewarmed PBS. The cells were then preincubated in Opti-MEM, with or without CDKi or LY at 37°C in 5% CO2 for 30 min. […] Accumulation was stopped by cooling the samples on ice, removing the medium and washing twice with ice-cold PBS. The cells were then detached from the plates with 10× trypsin-EDTA, resuspended in PBS with 2% FBS and transferred to Eppendorf tubes, which were placed on ice until analysis. […] The median fluorescence (MF) intensity of 10,000 measured cells was used to compare the fluorescence resulting from each of the treatments. […] The MF intensity of untreated cells was subtracted from fluorescence values obtained for all the measured samples.
To quantify the inhibitory effect of each tested compound on the ABCB1 transporter in the MDCKII-ABCB1 cell line, the ratio between the MF intensity with or without inhibitor was calculated and normalized to the effect in the parental MDCKII cell line according to the following equation [30]: [drawing 1]

T2 sequence (P08183 whole entry): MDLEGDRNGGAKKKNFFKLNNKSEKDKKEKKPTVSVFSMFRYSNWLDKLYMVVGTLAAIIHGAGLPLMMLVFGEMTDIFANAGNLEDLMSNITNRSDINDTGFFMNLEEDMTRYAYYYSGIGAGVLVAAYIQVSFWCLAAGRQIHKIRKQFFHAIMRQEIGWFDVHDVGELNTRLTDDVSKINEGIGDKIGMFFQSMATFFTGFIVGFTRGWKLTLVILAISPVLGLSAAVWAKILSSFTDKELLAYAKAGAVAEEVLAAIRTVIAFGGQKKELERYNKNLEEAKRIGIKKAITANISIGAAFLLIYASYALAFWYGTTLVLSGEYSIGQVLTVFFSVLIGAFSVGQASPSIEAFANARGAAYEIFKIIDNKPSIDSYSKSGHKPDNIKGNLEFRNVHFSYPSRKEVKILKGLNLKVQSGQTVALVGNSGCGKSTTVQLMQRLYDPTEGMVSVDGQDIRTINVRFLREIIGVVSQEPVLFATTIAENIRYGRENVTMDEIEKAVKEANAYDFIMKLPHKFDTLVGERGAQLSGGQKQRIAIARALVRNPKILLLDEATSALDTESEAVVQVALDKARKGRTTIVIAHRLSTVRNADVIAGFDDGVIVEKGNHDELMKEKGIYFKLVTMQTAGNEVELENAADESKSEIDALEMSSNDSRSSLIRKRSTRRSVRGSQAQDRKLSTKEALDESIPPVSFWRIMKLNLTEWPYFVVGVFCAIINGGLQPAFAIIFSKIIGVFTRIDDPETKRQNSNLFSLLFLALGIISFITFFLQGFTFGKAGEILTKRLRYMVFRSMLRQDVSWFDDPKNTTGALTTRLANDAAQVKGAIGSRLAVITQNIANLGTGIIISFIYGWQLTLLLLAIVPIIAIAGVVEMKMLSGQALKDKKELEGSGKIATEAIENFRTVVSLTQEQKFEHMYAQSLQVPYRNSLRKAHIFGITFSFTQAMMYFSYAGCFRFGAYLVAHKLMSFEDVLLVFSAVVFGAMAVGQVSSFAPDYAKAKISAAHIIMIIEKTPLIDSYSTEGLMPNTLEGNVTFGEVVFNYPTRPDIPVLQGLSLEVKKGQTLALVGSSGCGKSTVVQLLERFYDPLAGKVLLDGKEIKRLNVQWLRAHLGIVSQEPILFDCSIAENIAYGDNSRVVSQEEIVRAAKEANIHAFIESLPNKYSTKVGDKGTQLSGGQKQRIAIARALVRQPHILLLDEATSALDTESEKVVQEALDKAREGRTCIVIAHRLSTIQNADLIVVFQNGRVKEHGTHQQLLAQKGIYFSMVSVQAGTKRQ
T1 sequence (P08183 whole entry): as above

In the case of CC(C)(C)c1cnc(CSc2cnc(NC(=O)C3CCNCC3)s2)o1 [SNS-032], the IC50 (ABCB1 transporter [1]) is listed as 14.6 µM, the “Effect on verapamil-stimulated vanadate-sensitive ATPase activity of ABCB1” value (ABCB1 [2]) is listed as “only slightly reduced it at the highest tested concentration” and the “Substrate of mouse P-glycoprotein (brain levels Abcb1 knockout vs wild type mice)” value (mouse P-glycoprotein) is listed as “substrate of mouse P-glycoprotein”. For the same compound, the ABCB1 substrate classification (ABCB1 [3]) was “non-substrates of ABCB1”, the inhibition at 30 min (ABCB1 [4]) was 23% and the “Inhibition of DNR efflux/accumulation across applied range” value (ABCB1 transporter [5]) was “did not inhibit DNR accumulation at any tested concentration”.
